The results in this text go back to patent US8163906B2, “Dihydroquinone and dihydronaphthridine inhibitors of JNK” (Roche Palo Alto, LLC, priority 2007, dated 2012).

Series [1] has as its system TNFα-induced IL-6 production. Kind of series: Rat in vivo TNFα-induced IL-6 production assay, oral gavage. The note with it: 30 min prior to TNF-α i.p. challenge, plasma 90 min after challenge. Also noted: species or system Female Wistar-Han rats. The method, then:
Female Wistar-Han rats procured from Charles River Laboratories were allowed to acclimate for one week prior to use and achieve an approximate body weight of 101-130 g. Rats were administered test compound (N=8 per compound) via oral gavage 30 min prior to an intraperitoneal challenge of 0.5 μg recombinant rat TNF-α (Biosource). Blood was collected via cardiocentesis 90 min after TNF-α challenge. Plasma was prepared using lithium heparin separation tubes (BD microtainer) and frozen at −80° C. until analyzed. IL-6 levels were determined using a rat specific IL-6 ELISA kit (Biosource). The percent inhibition and ED50 values (calculated as the dose of compound at which […] is 50% of the control value) were determined.

Series [2] relates to TNFα-induced IL-6 production. The experiment in a line: Rat in vivo TNFα-induced IL-6 production assay, subcutaneous. Also noted: species or system Female Wistar-Han rats. The note with it: plasma 90 min after TNF-α challenge. The method, then: Female Wistar-Han rats procured from Charles River Laboratories were allowed to acclimate for one week prior to use and achieve an approximate body weight of 114-132 g. Rats were administered compound 18 (N=8 per dose) subcutaneously 30 min prior to an intra-peritoneal challenge of 0.5 μg recombinant rat TNF-α (Biosource). Blood was collected via cardiocentesis 90 min after TNF-α challenge. Plasma was prepared using lithium heparin separation tubes (BD microtainer) and frozen at −80° C. until analyzed. IL-6 levels were determined using a rat specific IL-6 ELISA kit (Biosource). The percent inhibition and ED50 values (calculated as the dose of compound at which […] is 50% of the control value) were determined.

The next series concerns the target Human JNK2α2 (Homo sapiens, UniProt P45984). The experiment in a line: JNK assay in vitro, phosphorylation of GST-ATF2 with [γ-33P] ATP (JNK2). Type of series: biochemical. The note with it: ATP at Km (8 μM), 1 μM ATF2, 30° C. 30 min. The method, then: (§1) JNK activity was measured by phosphorylation of GST-ATF2 (19-96) with [γ-^33P] ATP. […] Human JNK2α2 assay contains 1 nM enzyme, 1 μM ATF2, 8 μM ATP with 1 uCi [γ-^33P] ATP. Human JNK1α1 assay contains 2 nM enzyme, 1 μM ATF2, 6 μM ATP with 1 μCi [γ-^33P] ATP. […] ATP. The enzyme assay was carried out in the presence or absence of several compound concentrations. JNK and compound were pre-incubated for 10 min., followed by initiation of the enzymatic reaction by adding ATP and the substrate. The reaction mixture was incubated at 30° C. for 30 min. […] The incorporation of ^33P into ATF2 was quantified on a microplate scintillation counter (Packard Topcount). Compound inhibition potency on JNK was measured by IC50 value generated from ten concentration inhibition curves fitted into the 3-parameter model: % inhibition=Maximum/(1+(IC50/[Inhibitor])^slope). Data were analyzed on Microsoft Excel for parameter estimation.

A further series deals with Human JNK1α1 (Homo sapiens, UniProt P45983). The experiment in a line: JNK assay in vitro, phosphorylation of GST-ATF2 with [γ-33P] ATP (JNK1). Type of series: biochemical. The note with it: ATP at Km (6 μM), 1 μM ATF2, 30° C. 30 min; read-out: IC50 vs. JNK1. The method, then: as §1
Chain of Human JNK1α1 (P45983 1-384 isoform P45983-2): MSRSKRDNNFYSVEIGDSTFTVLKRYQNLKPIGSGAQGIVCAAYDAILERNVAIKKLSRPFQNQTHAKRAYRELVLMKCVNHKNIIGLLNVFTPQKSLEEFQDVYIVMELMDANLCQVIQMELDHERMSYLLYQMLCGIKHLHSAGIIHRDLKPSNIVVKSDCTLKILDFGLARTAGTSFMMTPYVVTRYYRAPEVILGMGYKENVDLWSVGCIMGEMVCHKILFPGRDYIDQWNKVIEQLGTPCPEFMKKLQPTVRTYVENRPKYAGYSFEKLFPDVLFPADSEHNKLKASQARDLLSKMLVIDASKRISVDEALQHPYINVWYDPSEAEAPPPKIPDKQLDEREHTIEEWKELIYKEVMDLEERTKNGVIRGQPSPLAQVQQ

Chain of Human JNK2α2 (P45984 whole entry): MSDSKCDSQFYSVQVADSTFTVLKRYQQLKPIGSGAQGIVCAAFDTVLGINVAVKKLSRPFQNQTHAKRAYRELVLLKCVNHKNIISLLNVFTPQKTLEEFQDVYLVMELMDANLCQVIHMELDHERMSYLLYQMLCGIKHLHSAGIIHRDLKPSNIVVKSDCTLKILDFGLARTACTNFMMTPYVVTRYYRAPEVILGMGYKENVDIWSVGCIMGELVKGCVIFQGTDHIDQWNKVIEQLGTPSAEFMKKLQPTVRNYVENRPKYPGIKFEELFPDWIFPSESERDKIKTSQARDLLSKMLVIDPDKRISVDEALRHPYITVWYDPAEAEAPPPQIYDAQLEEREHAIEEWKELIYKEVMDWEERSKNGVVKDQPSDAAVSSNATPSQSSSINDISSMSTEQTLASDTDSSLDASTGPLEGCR

With `COC(=O)c1c(Cc2ccc(C(=O)NCCO)cc2)c(=O)c2ccc(Cl)cc2n1-c1ccccc1` [Compound 18, 7-chloro-3-[4-(2-hydroxyethylcarbamoyl)-benzyl]-4-oxo-1-phenyl-1,4-dihydroquinoline-2-carboxylic acid methyl ester], the “IL-6 Inhibition (%)” value was 53% in series [1] (3 mg/Kg); 30.01% in series [2] (0.3 mg/Kg); 47.83% in series [2] (1.0 mg/Kg); 54.85% in series [2] (3.0 mg/Kg); 71.15% in series [2] (10 mg/Kg).
`COC(=O)c1c(Cc2ccc(S(=O)(=O)N3CCN(C)CC3)cc2)c(=O)c2ccc(Cl)cc2n1-c1ccccc1` [Compound 30, 7-chloro-3-[4-(4-methyl-piperazine-1-sulfonyl)-benzyl]-4-oxo-1-phenyl-1,4-dihydroquinoline-2-carboxylic acid methyl ester] showed a melting point of 223.3 to 226.6 °C. It took 86.3 nM to reach half-maximal inhibition against Human JNK2α2 (IC50). The “IL-6 Inhibition (%)” value in series [1] (30 mg/Kg) was found to be 46%. Also, the IC50 at Human JNK1α1 worked out at 35.5 nM.
For the compound `Nc1cccc(-n2c(-c3ncco3)c(Cc3ccccc3)c(=O)c3ccc(Cl)cc32)n1` [Compound 141, 1-(6-amino-pyridin-2-yl)-3-benzyl-7-chloro-2-oxazol-2-yl-1H-quinolin-4-one], the melting point was in the range of 279.3 to 282.8 °C. In addition, the IC50 on Human JNK2α2 came to 2090 nM. The IC50 on Human JNK1α1 was 612 nM.
Compound `COC(=O)c1c(Cc2ccc(S(=O)(=O)N3CCC(O)CC3)cc2)c(=O)c2ccc(F)cc2n1-c1ccccc1` [Compound 110] had a melting point of 232 to 233 °C. The compound further registered an IC50 against Human JNK2α2 of 201 nM. Further, the IC50 at Human JNK1α1 worked out at 50.2 nM.
`CCC(=O)c1c(Cc2ccc(S(=O)(=O)N3CCN(C)CC3)cc2)c(=O)c2ccc(Cl)cc2n1-c1ccccc1` [Compound 80, 7-chloro-3-[4-(4-methylpiperazin-1-sulfonyl)benzyl]-1-phenyl-2-propionyl-1H-quinlin-4-one] showed a melting point of more than 300 °C. This compound also returned an IC50 against Human JNK2α2 of 477 nM. Moreover, at Human JNK1α1, the IC50 amounted to 193 nM.
The matching figures for `COC(=O)c1c(Cc2ccc(S(=O)(=O)NCCO)cc2)c(=O)c2ccc(Cl)cc2n1-c1ccccc1` [Compound 65, 7-chloro-3-[4-(2-hydroxy-ethylsulfamoyl)-benzyl]-4-oxo-1-phenyl-1,4-dihydro-quinoline-2-carboxylic acid methyl ester]: 191.5 to 193.1 °C, 95.7 nM and 32.8 nM.
Consider `COC(=O)c1c(Cc2ccc(S(=O)(=O)NCC(C)(C)O)cc2)c(=O)c2ccc(Cl)cc2n1-c1ccccc1` [Compound 85, 3-[4-(2-Hydroxy-2-methylpropylsulfonamoyl)benzyl]-4-oxo-7-chloro-1-phenyl-1,4-dihydroquinoline-2-carboxylic acid methyl ester], for which the melting point lay in the range of 240 to 242.6 °C. 118 nM corresponded to half-maximal inhibition on Human JNK2α2 (IC50). Further, on Human JNK1α1, the IC50 was 48.1 nM.
